Like-named read-outs stand apart in the source and are kept apart here.
System: S. aureus
Assay: MIC susceptibility testing (modified NCCLS, 384-well)
Format: cell-based
Details: Staphylococcus aureus, read-out: MIC
Description: The NCCLS (National Committee for Clinical Laboratory Standards), method to determine MIC's of antimicrobial compounds is modified for high-throughput screening. All stocks of tested compounds are prepared in either water or in DMSO depending on solubility. At the highest concentration, DMSO content should not exceed 0.5%. Briefly, twenty 2-fold serial dilutions of test compounds from the highest concentration are made in a 384-well microtiter plate. Each well is inoculated with testing bacteria in broth to a final concentration of approximately 1–1.5×10^6 cells/ml. Bacterial growth is determined by the increase of optical density at 600 nm using a microplate reader (Tecan SpectraFluor Plus). The MIC is defined as the lowest concentration at which bacterial growth (equivalent to visible growth) was inhibited after 16 to 18 hours of incubation at the appropriate temperature required for the bacteria growth.
Using the assay provided above, the potency of NB2046 was compared to triclosan.

Measured: MIC

CSCCC(NC=O)C(=O)NC(CC(C)C)C(=O)Oc1cc(Cl)ccc1Oc1ccc(Cl)cc1Cl (centres unmarked) [NB2046, 2-(2-formylamino-4-methylsulfanyl-butyrylamino)-4-methyl-pentanoic acid 5-chloro-2-(2,4-dichloro-phenoxy)-phenyl ester]
0.977 ng/mL: ATCC 11632 / MSSA, MSSA ATCC 11632, Table 5 | ATCC 14154 / MSSA, MSSA ATCC 14154, Table 5 | ATCC 43300 / MSSA, MSSA ATCC 43300, Table 5
7.81 ng/mL: ATCC 700787 / MSSA, MSSA ATCC 700787, Table 5
≥ 4000 ng/mL: ATCC 700699 / MSSA, MSSA ATCC 700699, Table 5
0.488 ng/mL: ATCC 33592 / MSSA, MSSA ATCC 33592, Table 5 | ATCC 33593 / MSSA, MSSA ATCC 33593, Table 5
15.6 ng/mL: ATCC 33591 / MSSA, MSSA ATCC 33591, Table 5 | ATCC 700789 / MSSA, MSSA ATCC 700789, Table 5
≤ 125 ng/mL: ATCC11632, S. aureus ATCC 11632, Exp. #1, Table 3 | ATCC11632, S. aureus ATCC 11632, Exp. #2, Table 3 | ATCC13301, S. aureus ATCC 13301, Exp. #1, Table 3 | ATCC13301, S. aureus ATCC 13301, Exp. #2, Table 3 | ATCC14154, S. aureus ATCC 14154, Exp. #1, Table 3 | ATCC14154, S. aureus ATCC 14154, Exp. #2, Table 3 | ATCC33591, S. aureus ATCC 33591, Exp. #1, Table 3 | ATCC33591, S. aureus ATCC 33591, Exp. #2, Table 3 | ATCC33592, S. aureus ATCC 33592, Exp. #1, Table 3 | ATCC33592, S. aureus ATCC 33592, Exp. #2, Table 3 | ATCC33593, S. aureus ATCC 33593, Exp. #1, Table 3 | ATCC33593, S. aureus ATCC 33593, Exp. #2, Table 3 | ATCC 33594 / MSSA, MSSA ATCC 33594, Exp. #1, Table 4 | ATCC 33594 / MSSA, MSSA ATCC 33594, Exp. #2, Table 4 | ATCC43300, S. aureus ATCC 43300, Exp. #1, Table 3 | ATCC43300, S. aureus ATCC 43300, Exp. #2, Table 3 | ATCC700260, S. aureus ATCC 700260, Exp. #1, Table 3 | ATCC700260, S. aureus ATCC 700260, Exp. #2, Table 3 | ATCC 700260 / MSSA, MSSA ATCC 700260, Exp. #1, Table 4 | ATCC700698, S. aureus ATCC 700698, Exp. #1, Table 3 | ATCC700698, S. aureus ATCC 700698, Exp. #2, Table 3 | ATCC700787, S. aureus ATCC 700787, Exp. #1, Table 3 | ATCC700787, S. aureus ATCC 700787, Exp. #2, Table 3 | ATCC700788, S. aureus ATCC 700788, Exp. #1, Table 3 | ATCC700788, S. aureus ATCC 700788, Exp. #2, Table 3 | ATCC700789, S. aureus ATCC 700789, Exp. #1, Table 3 | ATCC700789, S. aureus ATCC 700789, Exp. #2, Table 3
0.015 ng/mL: ATCC 13301 / MSSA, MSSA ATCC 13301, Table 5
3.91 ng/mL: ATCC 700698 / MSSA, MSSA ATCC 700698, Table 5
4000 ng/mL: ATCC 700260 / MSSA, MSSA ATCC 700260, Exp. #2, Table 4
8000 ng/mL: ATCC700699, S. aureus ATCC 700699, Exp. #2, Table 3
62.5 ng/mL: ATCC 700788 / MSSA, MSSA ATCC 700788, Table 5
32000 ng/mL: ATCC 11632 / MSSA, MSSA ATCC 11632, Exp. #1, Table 4 | ATCC 700699 / MRSA, MRSA ATCC 700699, Exp. #1, Table 4 | ATCC 700699 / MRSA, MRSA ATCC 700699, Exp. #2, Table 4
0.031 ng/mL: ATCC 700260 / MSSA, MSSA ATCC 700260, Table 5
16000 ng/mL: ATCC 11632 / MSSA, MSSA ATCC 11632, Exp. #2, Table 4 | ATCC700699, S. aureus ATCC 700699, Exp. #1, Table 3

From patent US7163923B2, “Peptide deformylase activated prodrugs” (Celmed Oncology (USA), Inc., priority 2001, dated 2007)
